Experimental data as given in patent US9169247B2, “Tetrahydro-beta-carboline derivatives, synthesis and use thereof” (Southern Research Institute, priority 2009, dated 2015).
Entries after “also recorded” stand apart in the source; their conditions may differ.

What was measured:
CACO-2 = test: Growth assay (Cell Titer Glo); assay type: cell-based; conditions: Homo sapiens; CACO-2 colon; 72 h
Description: (§1) Compounds 2a-h were tested for tumor cell growth inhibitory activity using the human breast MDA-MB-231 and ZR75-1 tumor cell lines and the colon CACO-2, SW-1116, and HT-29 tumor cell lines.
(§2) All human tumor cell lines were obtained from ATCC and grown under standard cell culture conditions at 37° C. in a humidified atmosphere with 5% CO2. Cells were grown in RPMI 1640 supplemented with 5% fetal bovine serum 2 mM glutamine, 100 units/ml penicillin, 100 units/ml streptomycin, and 0.25 μg/ml amphotericin. Cells were harvested at 70 to 90% confluence with trypsin/EDTA and used immediately Cell count and viability was determined by Trypan blue staining followed by hemocytometry. Only cultures displaying >95% cell viability were used for experiments. HMEC were grown according to the specifications from the supplier (Lonzo).
(§3) Tissue culture microtiter 96-well plates were seeded with cells at a density of 5,000 cells/well. The plates were incubated for 18-24 hours prior to any treatment. All test compounds were solubilized in 100% DMSO and diluted with media to obtain a final DMSO concentration of 0.1%. Cell viability was measured 72 hours after treatment by the Cell Titer Glo Assay (Promega), which is a luminescent assay that is an indicator of live cells as a function of metabolic activity and ATP content. The assay was performed according to manufacturer's specifications. Luminescence was measured by a Perkin Elmer Victor® multi-label plate reader.^6
(§4) Dose response curves were analyzed using Prism™ 4 software (GraphPad) to calculate IC50 values using a four parameter logistic equation.

SW1116 = test: Growth assay (Cell Titer Glo); assay type: cell-based; conditions: Homo sapiens, SW 1116; SW1116 colon; 72 h
Description: as §1, §2, §3, §4

ZR75-1 = test: Growth assay (Cell Titer Glo); assay type: cell-based; conditions: Homo sapiens, ZR-75-1; ZR75-1 breast; 72 h
Description: as §1, §2, §3, §4

[1] = test system: normal human mammary epithelial cells (HMEC); test: Cytotoxicity to normal cells (growth assay); assay type: cell-based; conditions: up to a concentration of 10 μM
Description: as §2, §3

cGMP phosphodiesterase = cGMP phosphodiesterase activity in whole cell lysates (fluorescence polarization); assay type: biochemical, human; conditions: lysates from MDA-MB-231 cells treated for 18 hours; FIG. 2
Description: FIG. 2 illustrates cGMP phosphodiesterase inhibitory activity of compound 2f. Whole cell lysates from human MDA-MB-231 breast tumor cells treated for 18 hours with compound 2f were assayed for cGMP phosphodiesterase activity using a fluorescence polarization assay (Molecular Devices Inc).

LOX IMVI = test: Growth assay (Cell Titer Glo); assay type: cell-based; conditions: Homo sapiens; LOX IMVI / LOX IMV1, melanoma
Summary of the method: (§5)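 Seeding at 5,000 cells/well preceded an 18-24 h incubation and then compound treatment in 0.1% DMSO. Metabolic ATP content, read by luminescence at 72 h, gave dose-response curves fitted for IC50.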

SK-MEL-28 = test: Growth assay (Cell Titer Glo); assay type: cell-based; conditions: Homo sapiens
Summary of the method: as §5

SNB-19 = test: Growth assay (Cell Titer Glo); assay type: cell-based; conditions: Homo sapiens; SNB-19, CNS
Summary of the method: as §5

TK-10 = test: Growth assay (Cell Titer Glo); assay type: cell-based; conditions: Homo sapiens; TK-10, renal
Summary of the method: as §5

UACC-257 = test: Growth assay (Cell Titer Glo); assay type: cell-based; conditions: Homo sapiens; UACC-257, melanoma
Summary of the method: as §5

MOLT-4 = test: Growth assay (Cell Titer Glo); assay type: cell-based; conditions: Homo sapiens; MOLT-4, hematopoietic
Summary of the method: as §5

HCT-116 = test: Growth assay (Cell Titer Glo); assay type: cell-based; conditions: Homo sapiens; HCT-116, colon
Summary of the method: as §5

U251 = test: Growth assay (Cell Titer Glo); assay type: cell-based; conditions: Homo sapiens, U-251; U251, CNS
Summary of the method: as §5

MCF-7 = test: Growth assay (Cell Titer Glo); assay type: cell-based; conditions: Homo sapiens, MCF7; MCF-7, breast
Summary of the method: as §5

[2] = test system: human Caki-1 renal tumor mouse xenograft; test: Caki-1 renal tumor mouse xenograft model; assay type: in vivo; conditions: 10 mg/kg one time per day for 22 days; FIG. 3B
Description: FIGS. 3A-B illustrate the anticancer activity of compound 2j. […] The cells with treated for 72 hours prior to measuring cell viability using the Cell Titer Glo assay (Promega Corp.). […] Tumor bearing mice were treated at a dose of 10 mg/kg one time per day for 22 days.

MDA-MB-468 = test: Growth assay (Cell Titer Glo); assay type: cell-based; conditions: Homo sapiens; MDA-MB-468, breast
Summary of the method: as §5

SK-MEL-5 = test: Growth assay (Cell Titer Glo); assay type: cell-based; conditions: Homo sapiens; SK-MEL-5, melanoma
Summary of the method: as §5

HCC-2998 = test: Growth assay (Cell Titer Glo); assay type: cell-based; conditions: Homo sapiens; HCC-2998, colon
Summary of the method: as §5

A498 = test: Growth assay (Cell Titer Glo); assay type: cell-based; conditions: Homo sapiens; A498, renal
Summary of the method: as §5

K562 = test: Growth assay (Cell Titer Glo); assay type: cell-based; conditions: Homo sapiens; K562, hematopoietic
Summary of the method: as §5

COLO205 = test: Growth assay (Cell Titer Glo); assay type: cell-based; conditions: Homo sapiens, COLO 205; COLO205, colon
Summary of the method: as §5

Hs578T = test: Growth assay (Cell Titer Glo); assay type: cell-based; conditions: Homo sapiens, Hs-578T, breast
Summary of the method: as §5

OVCAR-3 = test: Growth assay (Cell Titer Glo); assay type: cell-based; conditions: Homo sapiens; OVCAR-3, ovarian
Summary of the method: as §5

SF-295 = test: Growth assay (Cell Titer Glo); assay type: cell-based; conditions: Homo sapiens; SF-295, CNS
Summary of the method: as §5

SK-MEL-2 = test: Growth assay (Cell Titer Glo); assay type: cell-based; conditions: Homo sapiens; SK-MEL-2, melanoma
Summary of the method: as §5

A549 = test: Growth assay (Cell Titer Glo); assay type: cell-based; conditions: Homo sapiens; A549, lung
Summary of the method: as §5

NCI-H522 = test: Growth assay (Cell Titer Glo); assay type: cell-based; conditions: Homo sapiens; NCI-H522, lung
Summary of the method: as §5

HOP-92 = test: Growth assay (Cell Titer Glo); assay type: cell-based; conditions: Homo sapiens; HOP-92, lung
Summary of the method: as §5

BT-549 = test: Growth assay (Cell Titer Glo); assay type: cell-based; conditions: Homo sapiens; BT-549, breast
Summary of the method: as §5

NCI-H226 = test: Growth assay (Cell Titer Glo); assay type: cell-based; conditions: Homo sapiens; NCI-H226, lung
Summary of the method: as §5

MDA-MB-435 = test: Growth assay (Cell Titer Glo); assay type: cell-based; conditions: Homo sapiens; MDA-MB-435, melanoma
Summary of the method: as §5

Molecule COC(=O)[C@H]1Cc2c([nH]c3ccccc23)[C@H](c2cc(OC)ccc2OC)N1C(=O)CCl [Compound 2f, Methyl (1S,3R)-1-(2,5-dimethoxyphenyl)-2-(2-chloroacetyl)-2,3,4,9-tetrahydro-1H-β-carboline-3-carboxylate] has an IC50 (CACO-2) of 0.01 µM, an IC50 (SW1116) of 4.4 µM and an IC50 (ZR75-1) of 1.2 µM. The “cytotoxicity to normal human mammary epithelial cells (HMEC)” value [1] was “insensitive; also recorded: no cytotoxicity”, the “cGMP PDE activity in lysates” value (cGMP phosphodiesterase) was “selectively inhibited” and the IC50 (LOX IMVI) was 4 nM. It also gave an IC50 (SK-MEL-28) of 485 nM, an IC50 (SNB-19) of 131 nM and an IC50 (TK-10) of 78 nM. It also gave an IC50 (UACC-257) of 5320 nM, an IC50 (MOLT-4) of 161 nM and an IC50 (HCT-116) of over 10000 nM. The IC50 (U251) was 259 nM and the IC50 (MCF-7) was 3750 nM.

In the case of COC(=O)[C@H]1Cc2c([nH]c3ccccc23)[C@H](c2ccc(Cl)cc2Cl)N1C(=O)CCl [Compound 2j, (1S,3R) Methyl 1-(2,4-dichlorophenyl)-2-(2-chloroacetyl)-2,3,4,9-tetrahydro-1H-β-carboline-3-carboxylate], the “in vivo tumor growth” value [2] is reported as “strongly suppressed tumor growth; also recorded: strong in vivo antitumor activity”, the IC50 (MDA-MB-468) is reported as 130 nM and the IC50 (SK-MEL-5) is reported as over 3000 nM. For the same molecule, the IC50 (HCC-2998) was 2260 nM, the IC50 (LOX IMVI) was under 1 nM and the IC50 (A498) was 96 nM. It also gave an IC50 (K562) of 1250 nM, an IC50 (COLO205) of 1440 nM and an IC50 (Hs578T) of 220 nM. It also gave an IC50 (SK-MEL-28) of 1040 nM, an IC50 (SNB-19) of 1040 nM and an IC50 (OVCAR-3) of 130 nM. The IC50 (TK-10) was 200 nM, the IC50 (SF-295) was 70 nM and the IC50 (UACC-257) was over 3000 nM. The IC50 (MOLT-4) was 130 nM, the IC50 (HCT-116) was over 3000 nM and the IC50 (U251) was 1880 nM. For the same molecule, the IC50 (SK-MEL-2) was 920 nM, the IC50 (A549) was over 3000 nM and the IC50 (NCI-H522) was 16 nM. It also gave an IC50 (HOP-92) of 20 nM, an IC50 (BT-549) of 760 nM and an IC50 (MCF-7) of over 3000 nM. It also gave an IC50 (NCI-H226) of 1410 nM and an IC50 (MDA-MB-435) of 640 nM.
